This is an account of results in patent US20070149535A1, “Protein kinase inhibitors” (ONCALIS AG, priority 2004, published 2007).

Common to all, as to assay: Yeast growth assay, specificity profiling
What all share (type): cell-based
Common to all, as to design: key: “−” indicates no growth restoration i.e. no activity against the particular kinase; “+”, “++”, and “+++” indicate activity detected by restoration of growth, classified into three categories of potency; “+”, “++”, and “+++” indicate activity detected by restoration of growth, classified into three categories of potency; “+”, “++”, and “+++” indicate activity detected by restoration of growth, classified into three categories of potency
Holding throughout (details): 7 concentrations between 0.2 and 100 μM

One test concerns the target T1, InsR (Homo sapiens, UniProt P06213).
T1 construct: expressed in transfected cells; host or cells: yeast
The procedure:
(§1) Specificity Profiling: Yeast Growth Assay
(§2) The yeast growth assay was performed as described in “Method for the identification and/or validation of receptor tyrosine kinase inhibitors” PCT/CH03/00694 (2004/10/24), section “Modes for Carrying out the Invention, Experiment 1 and Experiment 2.
(§3) Briefly, yeast cells carrying plasmids with the RTK of interest were grown in glucose containing medium (repressing expression). The cultures were diluted into galactose containing medium, which induces the expression of the kinase. Expression of the kinase inhibits growth of the yeast cells, which allows for positive selection of kinase inhibitors restoring growth of cells. Compounds were titrated at 7 concentrations between 0.2 and 100 μM.
(§4) Specificity profiling of compounds, using the yeast growth assay method described above. “−” indicates no growth restoration i.e. no activity against the particular kinase, “+”, “++”, and “+++” indicate activity detected by restoration of growth, classified into three categories of potency according to the maximal level of growth restoration reached and the concentration at which the maximal growth restoration is reached.

Another test deals with T2, RET (Homo sapiens, UniProt P07949).
T2 construct: expressed in transfected cells; host or cells: yeast
T2 sequence (P07949 29-1114): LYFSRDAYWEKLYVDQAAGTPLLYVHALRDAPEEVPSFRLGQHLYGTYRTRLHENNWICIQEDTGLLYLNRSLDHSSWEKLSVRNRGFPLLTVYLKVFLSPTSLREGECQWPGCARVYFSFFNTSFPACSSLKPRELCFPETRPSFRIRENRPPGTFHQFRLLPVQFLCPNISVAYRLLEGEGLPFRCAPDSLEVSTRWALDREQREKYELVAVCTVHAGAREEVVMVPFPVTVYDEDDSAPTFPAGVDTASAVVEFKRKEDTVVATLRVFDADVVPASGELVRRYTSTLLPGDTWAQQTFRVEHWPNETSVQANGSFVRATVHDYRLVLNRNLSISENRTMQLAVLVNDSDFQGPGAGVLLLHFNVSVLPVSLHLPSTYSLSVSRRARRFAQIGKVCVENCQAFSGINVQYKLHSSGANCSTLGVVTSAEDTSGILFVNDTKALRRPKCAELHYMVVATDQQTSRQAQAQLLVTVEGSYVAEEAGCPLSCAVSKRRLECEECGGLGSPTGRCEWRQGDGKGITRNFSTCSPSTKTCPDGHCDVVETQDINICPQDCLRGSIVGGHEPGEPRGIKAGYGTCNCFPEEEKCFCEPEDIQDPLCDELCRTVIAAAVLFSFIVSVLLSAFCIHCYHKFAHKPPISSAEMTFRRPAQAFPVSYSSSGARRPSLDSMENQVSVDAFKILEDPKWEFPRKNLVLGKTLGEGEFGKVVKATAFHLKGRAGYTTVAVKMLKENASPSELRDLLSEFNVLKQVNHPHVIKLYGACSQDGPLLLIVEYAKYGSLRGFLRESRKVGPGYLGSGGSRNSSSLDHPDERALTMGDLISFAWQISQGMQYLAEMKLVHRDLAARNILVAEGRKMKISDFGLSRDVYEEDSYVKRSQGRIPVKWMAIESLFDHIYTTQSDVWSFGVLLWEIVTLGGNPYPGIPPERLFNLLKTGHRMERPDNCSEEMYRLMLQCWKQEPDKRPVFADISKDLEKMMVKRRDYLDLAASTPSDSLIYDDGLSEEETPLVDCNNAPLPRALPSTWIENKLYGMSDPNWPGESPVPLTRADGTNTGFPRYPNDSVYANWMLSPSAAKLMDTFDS
Here is the method: as §1, §2, §3, §4

The next test has as its target T3, TEK (Homo sapiens, UniProt Q02763).
T3 construct: expressed in transfected cells; host or cells: yeast
The procedure: as §1, §2, §3, §4

The target of another test is T4, VEGFR2 (Homo sapiens, UniProt P35968).
T4 construct: expressed in transfected cells; host or cells: yeast
T4 sequence (P35968 20-1356): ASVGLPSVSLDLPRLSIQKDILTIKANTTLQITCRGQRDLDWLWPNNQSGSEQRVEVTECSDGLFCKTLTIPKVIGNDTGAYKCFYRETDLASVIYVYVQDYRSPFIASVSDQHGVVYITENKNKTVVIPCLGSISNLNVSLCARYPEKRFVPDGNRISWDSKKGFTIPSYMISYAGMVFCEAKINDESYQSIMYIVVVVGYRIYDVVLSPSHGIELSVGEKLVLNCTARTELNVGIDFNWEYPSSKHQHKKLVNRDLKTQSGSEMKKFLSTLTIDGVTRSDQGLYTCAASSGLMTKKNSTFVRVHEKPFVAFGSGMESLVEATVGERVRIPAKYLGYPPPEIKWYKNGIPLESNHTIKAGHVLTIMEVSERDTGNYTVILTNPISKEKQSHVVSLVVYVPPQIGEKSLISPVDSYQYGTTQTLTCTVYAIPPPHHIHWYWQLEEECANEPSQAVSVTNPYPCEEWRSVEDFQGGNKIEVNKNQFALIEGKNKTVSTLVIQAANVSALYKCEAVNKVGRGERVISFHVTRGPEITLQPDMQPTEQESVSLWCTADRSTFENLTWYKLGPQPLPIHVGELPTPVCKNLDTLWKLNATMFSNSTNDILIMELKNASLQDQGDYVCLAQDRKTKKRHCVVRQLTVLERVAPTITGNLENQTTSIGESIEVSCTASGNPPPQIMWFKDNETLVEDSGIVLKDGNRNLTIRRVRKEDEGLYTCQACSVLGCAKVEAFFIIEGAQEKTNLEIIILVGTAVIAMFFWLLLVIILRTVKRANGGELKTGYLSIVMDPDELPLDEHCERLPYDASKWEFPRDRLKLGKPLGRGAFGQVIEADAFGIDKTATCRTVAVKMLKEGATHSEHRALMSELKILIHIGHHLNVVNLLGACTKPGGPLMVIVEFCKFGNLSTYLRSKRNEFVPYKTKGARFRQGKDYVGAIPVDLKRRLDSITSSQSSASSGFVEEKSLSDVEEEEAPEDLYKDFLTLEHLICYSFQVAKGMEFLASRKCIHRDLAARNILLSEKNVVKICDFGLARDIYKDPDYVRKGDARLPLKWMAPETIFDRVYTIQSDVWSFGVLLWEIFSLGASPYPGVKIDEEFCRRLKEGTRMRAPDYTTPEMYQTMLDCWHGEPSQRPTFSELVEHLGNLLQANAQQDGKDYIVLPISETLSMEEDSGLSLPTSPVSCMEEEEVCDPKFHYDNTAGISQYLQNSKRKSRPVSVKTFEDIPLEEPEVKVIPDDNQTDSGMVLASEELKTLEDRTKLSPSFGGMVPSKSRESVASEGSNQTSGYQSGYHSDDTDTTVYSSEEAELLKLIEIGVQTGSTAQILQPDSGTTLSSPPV
The procedure:
as §1, §2, §3, §4

Another test concerns the target T5, EphB2 (Homo sapiens, UniProt P29323).
T5 construct: expressed in transfected cells; host or cells: yeast
T5 sequence (P29323 19-1055): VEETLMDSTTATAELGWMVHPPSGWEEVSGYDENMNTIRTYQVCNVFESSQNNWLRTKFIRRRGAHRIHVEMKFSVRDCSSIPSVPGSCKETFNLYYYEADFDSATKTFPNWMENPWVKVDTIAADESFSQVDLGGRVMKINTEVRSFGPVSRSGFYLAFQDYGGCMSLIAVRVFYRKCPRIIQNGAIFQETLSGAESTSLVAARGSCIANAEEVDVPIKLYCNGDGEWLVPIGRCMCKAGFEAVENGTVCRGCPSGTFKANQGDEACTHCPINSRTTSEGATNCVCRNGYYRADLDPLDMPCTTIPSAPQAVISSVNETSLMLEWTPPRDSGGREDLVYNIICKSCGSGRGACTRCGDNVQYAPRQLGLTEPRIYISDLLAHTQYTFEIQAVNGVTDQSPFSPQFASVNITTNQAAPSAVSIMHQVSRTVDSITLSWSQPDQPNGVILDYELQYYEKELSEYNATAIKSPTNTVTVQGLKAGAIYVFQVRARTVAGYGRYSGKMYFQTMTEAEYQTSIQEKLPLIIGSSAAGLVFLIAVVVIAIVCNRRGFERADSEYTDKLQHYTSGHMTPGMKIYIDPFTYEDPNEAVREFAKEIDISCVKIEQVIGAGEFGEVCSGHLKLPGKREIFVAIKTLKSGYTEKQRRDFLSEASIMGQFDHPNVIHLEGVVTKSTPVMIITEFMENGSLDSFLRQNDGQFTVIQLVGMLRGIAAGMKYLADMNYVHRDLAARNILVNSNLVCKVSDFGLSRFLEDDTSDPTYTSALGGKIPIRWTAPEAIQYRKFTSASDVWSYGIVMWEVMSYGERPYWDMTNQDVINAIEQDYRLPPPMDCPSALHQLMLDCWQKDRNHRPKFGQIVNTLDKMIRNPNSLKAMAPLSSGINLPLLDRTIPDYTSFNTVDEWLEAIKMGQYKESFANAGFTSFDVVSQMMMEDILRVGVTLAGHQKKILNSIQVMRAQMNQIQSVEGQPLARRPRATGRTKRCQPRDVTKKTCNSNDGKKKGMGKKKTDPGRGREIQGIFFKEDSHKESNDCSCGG
The procedure: as §1, §2, §3, §4

A further test has as its target T6, IGF-1R (Homo sapiens, UniProt P08069).
T6 construct: expressed in transfected cells; host or cells: yeast
Here is the method: as §1, §2, §3, §4

A further test deals with T7, VEGFR1 (Homo sapiens, UniProt P17948).
T7 construct: expressed in transfected cells; host or cells: yeast
T7 sequence (P17948 27-1338): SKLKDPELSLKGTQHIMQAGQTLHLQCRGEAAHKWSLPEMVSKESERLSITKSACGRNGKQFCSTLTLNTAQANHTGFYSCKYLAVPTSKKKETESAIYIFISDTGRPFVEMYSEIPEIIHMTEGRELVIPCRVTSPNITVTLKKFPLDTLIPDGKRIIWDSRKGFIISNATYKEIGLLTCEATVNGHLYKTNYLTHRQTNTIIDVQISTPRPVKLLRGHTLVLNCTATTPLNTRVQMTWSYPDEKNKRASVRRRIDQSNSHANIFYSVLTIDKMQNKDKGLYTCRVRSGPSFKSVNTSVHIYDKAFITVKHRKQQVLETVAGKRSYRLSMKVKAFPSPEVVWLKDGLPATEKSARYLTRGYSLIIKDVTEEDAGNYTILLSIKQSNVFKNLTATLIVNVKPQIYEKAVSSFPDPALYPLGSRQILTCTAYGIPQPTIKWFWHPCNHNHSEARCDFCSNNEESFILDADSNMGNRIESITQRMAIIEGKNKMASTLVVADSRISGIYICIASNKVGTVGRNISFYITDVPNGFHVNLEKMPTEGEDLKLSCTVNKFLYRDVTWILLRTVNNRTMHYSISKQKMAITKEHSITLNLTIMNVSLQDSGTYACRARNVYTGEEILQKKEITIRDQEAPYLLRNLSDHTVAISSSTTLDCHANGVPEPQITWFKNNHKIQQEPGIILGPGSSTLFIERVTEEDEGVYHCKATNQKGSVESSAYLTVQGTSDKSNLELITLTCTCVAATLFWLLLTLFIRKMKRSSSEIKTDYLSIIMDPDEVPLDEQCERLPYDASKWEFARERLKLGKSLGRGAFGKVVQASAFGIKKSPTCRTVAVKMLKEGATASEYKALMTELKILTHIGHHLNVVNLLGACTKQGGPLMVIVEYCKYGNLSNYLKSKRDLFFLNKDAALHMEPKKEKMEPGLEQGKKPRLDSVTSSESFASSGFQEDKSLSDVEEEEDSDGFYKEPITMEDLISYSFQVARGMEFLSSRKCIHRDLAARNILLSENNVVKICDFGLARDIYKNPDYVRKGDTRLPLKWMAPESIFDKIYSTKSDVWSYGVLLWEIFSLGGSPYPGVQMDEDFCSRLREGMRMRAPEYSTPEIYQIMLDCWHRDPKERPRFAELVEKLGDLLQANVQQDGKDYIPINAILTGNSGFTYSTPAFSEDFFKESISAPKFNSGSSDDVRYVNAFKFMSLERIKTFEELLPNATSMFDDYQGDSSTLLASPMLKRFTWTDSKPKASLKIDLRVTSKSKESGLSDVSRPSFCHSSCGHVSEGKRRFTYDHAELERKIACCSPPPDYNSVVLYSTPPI
Here is the method:
as §1, §2, §3, §4

T1 sequence (P06213 28-1382): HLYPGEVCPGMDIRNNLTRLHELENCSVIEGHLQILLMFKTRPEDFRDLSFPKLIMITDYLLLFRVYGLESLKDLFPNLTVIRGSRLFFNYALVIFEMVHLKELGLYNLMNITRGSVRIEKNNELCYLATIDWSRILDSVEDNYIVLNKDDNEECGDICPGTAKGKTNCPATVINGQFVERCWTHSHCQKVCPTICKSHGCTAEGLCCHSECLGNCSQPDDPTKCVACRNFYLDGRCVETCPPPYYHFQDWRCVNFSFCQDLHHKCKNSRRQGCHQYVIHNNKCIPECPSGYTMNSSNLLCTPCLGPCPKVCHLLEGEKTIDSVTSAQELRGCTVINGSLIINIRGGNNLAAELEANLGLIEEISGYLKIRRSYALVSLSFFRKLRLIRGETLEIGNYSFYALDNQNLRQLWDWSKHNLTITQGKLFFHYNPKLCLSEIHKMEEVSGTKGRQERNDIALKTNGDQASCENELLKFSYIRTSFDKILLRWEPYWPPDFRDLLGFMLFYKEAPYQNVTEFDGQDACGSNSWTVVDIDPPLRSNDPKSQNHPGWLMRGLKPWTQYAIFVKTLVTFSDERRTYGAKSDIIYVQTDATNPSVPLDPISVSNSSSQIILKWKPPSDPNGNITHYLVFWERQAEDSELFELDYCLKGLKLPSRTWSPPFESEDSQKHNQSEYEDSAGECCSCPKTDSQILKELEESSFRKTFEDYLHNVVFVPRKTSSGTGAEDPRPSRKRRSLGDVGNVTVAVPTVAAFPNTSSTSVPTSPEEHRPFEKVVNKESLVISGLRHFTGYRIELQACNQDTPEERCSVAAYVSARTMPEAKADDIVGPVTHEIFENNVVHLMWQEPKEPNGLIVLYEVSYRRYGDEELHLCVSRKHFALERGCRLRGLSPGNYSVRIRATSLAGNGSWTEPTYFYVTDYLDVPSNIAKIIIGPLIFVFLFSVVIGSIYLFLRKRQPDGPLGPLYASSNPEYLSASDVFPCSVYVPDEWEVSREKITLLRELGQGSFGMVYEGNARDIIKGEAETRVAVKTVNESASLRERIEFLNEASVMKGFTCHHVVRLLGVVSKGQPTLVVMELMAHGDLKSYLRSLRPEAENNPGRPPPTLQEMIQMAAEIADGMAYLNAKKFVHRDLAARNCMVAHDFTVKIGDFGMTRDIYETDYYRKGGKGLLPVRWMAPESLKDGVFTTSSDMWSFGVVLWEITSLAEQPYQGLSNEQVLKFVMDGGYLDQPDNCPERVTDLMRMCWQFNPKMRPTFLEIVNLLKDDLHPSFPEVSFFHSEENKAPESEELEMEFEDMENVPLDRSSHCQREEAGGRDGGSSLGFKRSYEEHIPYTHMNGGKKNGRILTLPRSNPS

On to `Cc1nccn2c(Nc3cccc(Cl)c3)c(-c3ccccc3)nc12` [compound 3, (3-Chloro-phenyl)-(8-methyl-2-phenyl-imidazo[1,2-a]pyrazin-3-yl)-amine], for which the InsR growth restoration result at InsR is “−”. Moreover, at RET, the RET growth restoration result is given as “−”. On TEK, the TEK growth restoration entry is on record as “−”. Besides, the VEGFR2 growth restoration entry at VEGFR2 is given as “−”. On EphB2, the EphB2 growth restoration entry is recorded as “++”. Moreover, the IGF-1R growth restoration result on IGF-1R was “−”. The VEGFR1 growth restoration result at VEGFR1 is “−”.
As to `COc1cccc(-c2nc3cnccn3c2Nc2cccc(Cl)c2)c1` [compound 7, (3-Chloro-phenyl)-[2-(3-methoxy-phenyl)-imidazo[1,2-a]pyrazin-3-yl]-amine], the InsR growth restoration result at InsR is “−”. Also, the RET growth restoration entry on RET is recorded as “+ −”. The TEK growth restoration entry at TEK is “−”. In addition, at VEGFR2, the VEGFR2 growth restoration result is given as “−”. On EphB2, the EphB2 growth restoration result is on record as “−”. In addition, the IGF-1R growth restoration entry on IGF-1R is given as “−”. Besides, the VEGFR1 growth restoration result at VEGFR1 is listed as “−”.
Take `CC(=O)Nc1ccc(-c2nc3cnccn3c2Nc2cccc(Cl)c2)cc1` [compound 8, N-{4-[3-(3-Chloro-phenylamino)-imidazo[1,2-a]pyrazin-2-yl]-phenyl}-acetamide]: the InsR growth restoration result on InsR was “−”. The RET growth restoration entry on RET is “−”. The TEK growth restoration entry at TEK is reported as “−”. The VEGFR2 growth restoration entry at VEGFR2 was “−”. In addition, the EphB2 growth restoration entry on EphB2 is “++”. For the same molecule, the IGF-1R growth restoration result at IGF-1R is “−”. The VEGFR1 growth restoration result on VEGFR1 is on record as “−”.
As for `Nc1ccc(-c2nc3cnccn3c2Nc2cccc(Cl)c2)cc1` [compound 10, [2-(4-Amino-phenyl)-imidazo[1,2-a]pyrazin-3-yl]-(3-chloro-phenyl)-amine], the InsR growth restoration entry on InsR is recorded as “−”. In addition, the RET growth restoration result on RET was “−”. Moreover, the TEK growth restoration entry at TEK was “−”. Further, the VEGFR2 growth restoration result at VEGFR2 is reported as “−”. Also, the EphB2 growth restoration entry at EphB2 was “++”. In addition, on IGF-1R, the IGF-1R growth restoration result is given as “−”. In addition, the VEGFR1 growth restoration result on VEGFR1 is “−”.
Take `CC(C)c1nc2cnccn2c1Nc1cccc(Cl)c1` [compound 12, (3-Chloro-phenyl)-(2-isopropyl-imidazo[1,2-a]pyrazin-3-yl)-amine]: at InsR, the InsR growth restoration result is recorded as “−”. In addition, on RET, the RET growth restoration entry was “−”. Moreover, the TEK growth restoration result on TEK is recorded as “−”. The VEGFR2 growth restoration entry at VEGFR2 was “−”. Further, the EphB2 growth restoration entry on EphB2 is on record as “+”. On IGF-1R, the IGF-1R growth restoration entry was “−”. Further, on VEGFR1, the VEGFR1 growth restoration entry was “−”.
For the molecule `Brc1cccc(Nc2c(-c3ccccc3)nc3cnccn23)c1` [compound 14, (3-Bromo-phenyl)-(2-phenyl-imidazo[1,2-a]pyrazin-3-yl)-amine], on InsR, the InsR growth restoration result is “−”. For the same molecule, the RET growth restoration entry on RET was “−”. The TEK growth restoration result on TEK is listed as “−”. In addition, on VEGFR2, the VEGFR2 growth restoration entry is listed as “−”. The EphB2 growth restoration entry at EphB2 was “−”. In addition, at IGF-1R, the IGF-1R growth restoration result is “−”. The VEGFR1 growth restoration entry on VEGFR1 is listed as “−”.
As to `Clc1ccc(Nc2c(-c3ccccc3)nc3cnccn23)cc1` [compound 16, (4-Chloro-phenyl)-(2-phenyl-imidazo[1,2-a]pyrazin-3-yl)-amine], at InsR, the InsR growth restoration result is recorded as “−”. In addition, the RET growth restoration result on RET is recorded as “+”. Also, the TEK growth restoration result on TEK is recorded as “−”. Further, on VEGFR2, the VEGFR2 growth restoration entry is “−”. In addition, the EphB2 growth restoration result at EphB2 is listed as “−”. Also, the IGF-1R growth restoration entry on IGF-1R is recorded as “−”. Besides, the VEGFR1 growth restoration entry at VEGFR1 is recorded as “−”.
Consider `CNc1nccn2c(Nc3cccc(Cl)c3)c(-c3ccccc3)nc12` [compound 20, N′3-(3-Chloro-phenyl)-N′8-methyl-2-phenyl-imidazo[1,2-a]pyrazine-3,8-diamine], for which the InsR growth restoration result on InsR is given as “−”. The RET growth restoration result at RET was “−”. Besides, at TEK, the TEK growth restoration result was “−”. Also, the VEGFR2 growth restoration result on VEGFR2 is on record as “−”. In addition, on EphB2, the EphB2 growth restoration entry was “−”. Further, the IGF-1R growth restoration entry at IGF-1R is “−”. For the same molecule, the VEGFR1 growth restoration result at VEGFR1 is given as “−”.
As to `c1ccc(Nc2c(-c3ccccc3)nc3cnccn23)cc1` [compound 23, Phenyl-(2-phenyl-imidazo[1,2-a]pyrazin-3-yl)-amine], the InsR growth restoration result at InsR is recorded as “−”. For the same molecule, on RET, the RET growth restoration entry is “+”. Besides, on TEK, the TEK growth restoration entry was “−”. Further, the VEGFR2 growth restoration entry at VEGFR2 was “−”. On EphB2, the EphB2 growth restoration result was “++”. Besides, the IGF-1R growth restoration entry on IGF-1R is “−”. Further, the VEGFR1 growth restoration entry on VEGFR1 is recorded as “−”.
Regarding `Fc1cccc(Nc2c(-c3ccccc3)nc3cnccn23)c1` [compound 26, (3-Fluoro-phenyl)-(2-phenyl-imidazo[1,2-a]pyrazin-3-yl)-amine], the InsR growth restoration entry at InsR is “−”. In addition, at RET, the RET growth restoration result is listed as “−”. Besides, the TEK growth restoration entry on TEK is “−”. The VEGFR2 growth restoration result on VEGFR2 is listed as “−”. Also, the EphB2 growth restoration entry at EphB2 is on record as “+”. Further, the IGF-1R growth restoration entry on IGF-1R was “−”. For the same molecule, the VEGFR1 growth restoration entry at VEGFR1 was “−”.
